Twelve molecules from ChEMBL document CHEMBL1201862, “PubChem BioAssay data set” (2004) can be followed below.

Molecules are shown by their SMILES.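 Values below derive from 48-hour exposures of cells grown in 96-well plates, with endpoints linearly interpolated between the two concentrations bracketing the appropriate inhibition level. Abbreviation: GI50, concentration required for 50% inhibition of growth.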 Activity calls are given as the source filed them. Rule as the data show it: active = GI50 up to about 1.1 µM and inactive = higher.

Test systems include A498; COLO 205; HOP-92; K562; KM12; MOLT-4; NCI-H460; OVCAR-5; OVCAR-8; RPMI-8226; SF-295; SF-539; SK-OV-3; SNB-19; SNB-75; SR; UACC-257.
Holding throughout (assay): NCI anticancer screen, dose series, 48 h

`CCCCC(C(=O)C(=O)NC1C2CC3CC(C2)CC1C3)C(=O)C(C)C` (stereo not given): the GI50 in the experiment with A498, in the experiment on COLO 205, in the experiment with HOP-92, with K562, in the experiment with KM12 and in the experiment with MOLT-4 was > 100 µM (inactive) each time. In addition, the GI50 in the experiment with NCI-H460, with OVCAR-5, in the experiment with OVCAR-8, in the experiment on RPMI-8226, in the experiment on SF-295 and with SF-539 was > 100 µM (inactive) each time. Besides, the GI50 in the experiment on SK-OV-3, in the experiment with SNB-19, with SNB-75, in the experiment on SR and with UACC-257 was > 100 µM (inactive) throughout.

As for `CCC1(O)C(=O)OCc2c1cc1n(c2=O)Cc2cc3cc(OC)c(OC)cc3nc2-1` (stereo not given), the GI50 was 28.1 µM (inactive) in the experiment with A498; 32.6 µM (inactive) in the experiment with COLO 205; > 100 µM (inactive) with HOP-92; 78.5 µM (inactive) in the experiment with K562; > 100 µM (inactive) in the experiment with KM12; 4.85 µM (inactive) with MOLT-4. The GI50 is 3.49 µM (inactive) in the experiment with NCI-H460; > 100 µM (inactive) in the experiment with OVCAR-5; 82.4 µM (inactive) with OVCAR-8; 46.8 µM (inactive) with RPMI-8226; 10.9 µM (inactive) in the experiment on SF-295; 5.74 µM (inactive) in the experiment on SF-539. Besides, the GI50 in the experiment with SK-OV-3 was 19.7 µM (inactive); with SNB-19, 16 µM (inactive); in the experiment on SNB-75, 15 µM (inactive); in the experiment with SR, 2.29 µM (inactive); in the experiment on UACC-257 it was > 100 µM (inactive).

As to `CC1=C(c2cc(C(=O)Nc3cccc(C(F)(F)F)c3)ncn2)Sc2ccccc2N1`, the GI50 with A498, in the experiment on COLO 205, in the experiment with HOP-92, with K562, in the experiment with KM12 and in the experiment with MOLT-4 was > 100 µM (inactive) in each case. The GI50 in the experiment on NCI-H460, in the experiment on OVCAR-8, in the experiment with RPMI-8226, in the experiment with SF-295, with SF-539 and in the experiment with SK-OV-3 was > 100 µM (inactive) in each case. Also, the GI50 is > 100 µM (inactive) in the experiment on SNB-19, 58.9 µM (inactive) in the experiment on SNB-75, > 100 µM (inactive) in the experiment with SR and > 100 µM (inactive) in the experiment with UACC-257.

As to `COc1ccccc1NC(=O)C(CC(C(=O)Nc1ccccc1OC)/C(C)=N/Nc1ccc([N+](=O)[O-])cc1[N+](=O)[O-])/C(C)=N/Nc1ccc([N+](=O)[O-])cc1[N+](=O)[O-]` (stereo not given), the GI50 in the experiment with A498 is 51.1 µM (inactive); in the experiment with COLO 205 it was 69 µM (inactive); in the experiment with HOP-92, 54.3 µM (inactive); in the experiment on K562 it was > 65.9 µM (inactive); with KM12, 58.5 µM (inactive); in the experiment with MOLT-4 it was 1.7 µM (inactive). Further, the GI50 with NCI-H460 was > 100 µM (inactive); in the experiment on OVCAR-5, > 100 µM (inactive); in the experiment on OVCAR-8, > 71 µM (inactive); in the experiment with RPMI-8226, 63.1 µM (inactive); with SF-295, > 93.1 µM (inactive); with SF-539, > 90.2 µM (inactive). The GI50 with SK-OV-3 was > 92.7 µM (inactive); in the experiment with SNB-19 it was > 100 µM (inactive); in the experiment with SNB-75, 52.1 µM (inactive); in the experiment on SR it was 0.916 µM (active); in the experiment on UACC-257 it was > 72.3 µM (inactive).

Take `Cc1cccc2c1C/C(=C1\CCc3c(C)cccc31)C2=O`: the GI50 with A498, with COLO 205, in the experiment with K562, with KM12, in the experiment with MOLT-4 and with NCI-H460 was > 100 µM (inactive) throughout. In addition, the GI50 in the experiment with OVCAR-5 was > 100 µM (inactive); in the experiment with OVCAR-8 it was > 100 µM (inactive); with SF-295 it was > 100 µM (inactive); in the experiment on SK-OV-3, > 100 µM (inactive); in the experiment with SNB-19 it was > 100 µM (inactive); with SNB-75, 80.9 µM (inactive). In addition, the GI50 with SR and in the experiment with UACC-257 was > 100 µM (inactive) throughout.

Turning to `CCOC(=O)C(C)(C)Oc1ccc2c(=O)cc(-c3ccc(Cl)cc3)oc2c1`, the GI50 with A498, in the experiment with COLO 205, with K562, in the experiment on MOLT-4, in the experiment on NCI-H460 and in the experiment with OVCAR-8 was > 100 µM (inactive) throughout. Also, the GI50 with RPMI-8226 is > 100 µM (inactive); in the experiment with SF-295 it was > 100 µM (inactive); in the experiment with SF-539, > 100 µM (inactive); in the experiment on SNB-19, > 100 µM (inactive); in the experiment with SNB-75 it was 38.4 µM (inactive); in the experiment on SR it was > 100 µM (inactive). In addition, the GI50 in the experiment on UACC-257 is > 100 µM (inactive).

`c1ccc(C2=NOC3COc4ccccc4OCC23)cc1` (stereo not given): the GI50 with A498 was > 100 µM (inactive); with COLO 205 it was > 100 µM (inactive); in the experiment on K562, 72.6 µM (inactive); with KM12 it was 8.17 µM (inactive); with MOLT-4, > 100 µM (inactive); in the experiment on NCI-H460, > 100 µM (inactive). The GI50 in the experiment with OVCAR-8, in the experiment with RPMI-8226, with SF-295, in the experiment with SF-539, with SK-OV-3 and in the experiment on SNB-19 was > 100 µM (inactive) each time. Besides, the GI50 in the experiment with SNB-75 was 54.6 µM (inactive); in the experiment with SR it was > 100 µM (inactive); in the experiment with UACC-257 it was > 100 µM (inactive).

In the case of `O=C(/C=C/c1ccccc1Cl)NC1C=Nc2ccc([N+](=O)[O-])cc2NC1` (stereo not given), the GI50 in the experiment on A498 is > 100 µM (inactive); in the experiment with COLO 205, 39.5 µM (inactive); in the experiment on K562, 46.1 µM (inactive); with KM12 it was 34.4 µM (inactive); with MOLT-4 it was 13.4 µM (inactive); with NCI-H460 it was 47 µM (inactive). The GI50 is > 100 µM (inactive) in the experiment with OVCAR-5; 55.8 µM (inactive) in the experiment with OVCAR-8; 30.8 µM (inactive) with RPMI-8226; > 100 µM (inactive) in the experiment with SF-295; > 100 µM (inactive) in the experiment on SF-539; > 100 µM (inactive) in the experiment on SK-OV-3. Moreover, the GI50 is > 100 µM (inactive) in the experiment on SNB-19, 90.8 µM (inactive) with SNB-75, 14 µM (inactive) in the experiment with SR and 89.3 µM (inactive) in the experiment on UACC-257.

In the case of `CCOC(=O)N1C/C(=C\c2ccc(N(C)C)cc2)C(=O)/C(=C/c2ccc(N(C)C)cc2)C1`, the GI50 in the experiment with A498, in the experiment on COLO 205, with HOP-92, with K562, with KM12 and in the experiment with MOLT-4 was > 100 µM (inactive) in each case. Besides, the GI50 with NCI-H460, in the experiment with OVCAR-5, in the experiment with OVCAR-8, with RPMI-8226, in the experiment on SF-295 and with SF-539 was > 100 µM (inactive) in each case. Further, the GI50 in the experiment with SK-OV-3, in the experiment on SNB-19, in the experiment on SNB-75, in the experiment on SR and in the experiment on UACC-257 was > 100 µM (inactive) in each case.

With `CCc1oc2ccc(OC)c3c2c1C=CC=C3`, the GI50 in the experiment on A498, in the experiment with COLO 205, in the experiment with K562, with KM12, with MOLT-4 and in the experiment with NCI-H460 was > 100 µM (inactive) throughout. Besides, the GI50 in the experiment with OVCAR-5, in the experiment on OVCAR-8, in the experiment on RPMI-8226, with SF-295, in the experiment with SF-539 and in the experiment on SK-OV-3 was > 100 µM (inactive) in each case. The GI50 in the experiment on SNB-19 is > 100 µM (inactive); in the experiment with SNB-75, 60.3 µM (inactive); in the experiment with SR it was > 100 µM (inactive); in the experiment with UACC-257, > 100 µM (inactive).

For the molecule `c1ccc(CN(Cc2ccccn2)Cn2cccn2)nc1`, the GI50 in the experiment on A498 is 38.2 µM (inactive); in the experiment with COLO 205 it was 57.1 µM (inactive); in the experiment on HOP-92 it was 52.6 µM (inactive); in the experiment with K562, 36.6 µM (inactive); with KM12, 63.8 µM (inactive); in the experiment with MOLT-4, 29.2 µM (inactive). In addition, the GI50 in the experiment with NCI-H460 is 41.2 µM (inactive); in the experiment on OVCAR-8, 32.8 µM (inactive); with RPMI-8226 it was 28.9 µM (inactive); with SF-295, 62.7 µM (inactive); with SF-539, > 100 µM (inactive); in the experiment on SK-OV-3 it was 43 µM (inactive). Besides, the GI50 was > 100 µM (inactive) in the experiment on SNB-19, > 100 µM (inactive) in the experiment on SNB-75, 33.4 µM (inactive) in the experiment on SR and 39 µM (inactive) in the experiment on UACC-257.

On to `COC(=O)C(Cc1nc2ccccc2nc1O)C(=O)C(=O)Nc1ccc([N+](=O)[O-])cc1[N+](=O)[O-]` (stereo not given), for which the GI50 in the experiment on A498 was 23 µM (inactive); with COLO 205 it was 16.4 µM (inactive); with K562 it was 30.8 µM (inactive); in the experiment on KM12, 16 µM (inactive); with MOLT-4, 18.5 µM (inactive); in the experiment on NCI-H460, 22.1 µM (inactive). Moreover, the GI50 in the experiment with OVCAR-5 is 27.2 µM (inactive); with OVCAR-8, 22.3 µM (inactive); in the experiment on RPMI-8226, 23.1 µM (inactive); in the experiment on SF-295, 24.9 µM (inactive); in the experiment with SF-539, 20.6 µM (inactive); with SK-OV-3, 24.9 µM (inactive). Further, the GI50 in the experiment on SNB-19 is 29.7 µM (inactive); in the experiment with SNB-75, 16.3 µM (inactive); in the experiment on SR, 12 µM (inactive); in the experiment on UACC-257 it was 19.7 µM (inactive).
